Results reported in patent US20180318383A1, “PEPTIDE HAVING NEURONAL LOSS PREVENTION AND REGENERATION EFFECTS, AND COMPOSITION CONTAINING SAME” (GEMVAX & KAEL CO., LTD., priority 2015, published 2018).

Experiments:
[1] = test system: NSCs; assay: ROS production in NSCs (DCFH-DA staining); format: cell-based, rat; conditions: 20 μM Aβ25-35 + PEP1, 48 hours, DCF fluorescence
Method: NSCs were treated with 20 μM Aβ25-30 for 48 hours and stained with DCFH-DA for 15 minutes to measure ROS. NSCs were treated with a varying concentration of PEP1 and 20 μM Aβ25-30 for 48 hours. After culturing, the cells were stained with 10 μM DCFH-DA at 37° C. for 15 minutes and washed with PBS three times. DCFH-DA freely passed through the cell membrane, and then was degraded into DCF by an esterase present in the cells. Therefore, a DCF fluorescent intensity refers to an intracellular hydrogen peroxide (ROS) level. DCF accumulation was evaluated using a reader according to an absorbance at 490 nm and a reference absorbance at 690 nm. Flow cytometry was observed and analyzed using an Accuri C6 flow cytometer.

[2] = test system: Tuj1; assay: Tuj1 expression in 3XTg-AD mice (western blotting, immunostaining); format: in vivo; conditions: hippocampus and whole brain; s.c. three times a week for two months; vs control and Donepezil, same amount
Method: To test the efficacy of PEP1 on AD, AD transgenic mice (3XTg-AD) were purchased from Jackson Laboratory. Genetic characteristics of the transgenic mice are as follows: B6; 129-Psen1tm1Mpm Tg(APPSwe, tauP301L)1Lfa/Mmjax. […] One week after mice were confirmed as pregnant, new mice were delivered and weaned for 3 weeks. Two weeks later, mature mice were obtained.
During the preliminary breeding and the entire period of the experiment, a temperature was maintained at 23±2° C. and a relative humidity was maintained at 60±10%, and then the mice were raised under a 12-hour dark/light cycle. Experimental animals were divided into five groups, and each group included 10 animals. The divided experimental groups are as follows. […]
The PEP1, physiological saline, donepezil and scramble peptide were subcutaneously injected at each concentration three times a week for two months from the age of 12 months, and then two months after the injection, cognitive/memory behavior tests (passive avoidance test and Y maze test) were performed to examine a degree of improvement in cognitive function and memory function. After the brain was extracted to separate the hippocampus, the amounts of amyloid beta in the hippocampus and the whole brain, and the amounts of an amyloid beta oligomer and NFT generated by tau hyperphosphorylation were determined by western blotting and immunostaining. […]

[3] = test system: primary cultured cortical nerve; assay: Intracellular signaling proteins in damaged neurons; format: cell-based, rat; conditions: Aβ25-35 + PEP1
Method: A primary cultured cortical nerve was obtained from the cerebral cortex of the fetal rat on day 16 of the embryonic period. Briefly, the brain was rapidly removed from the rat, and placed in a petri dish containing cold phosphate-buffered physiological saline (HBSS). Single cells were isolated from the cerebral cortex, and added into a previously poly-L-lysine-coated Corning dish with a diameter of 100 mm, or a glass coverslip was placed in a 6- or 24-well plate. The cultured cells were cultured in DMEM (high glucose).
Two days after the cells were added, non-neuronal cells were removed through treatment of 5 μM cytosine arabinoside for 24 hours. Only the mature culture (7 days in the test tube) was used in this experiment. Approximately 79.7% of a group of neurons was obtained from the neurons of a primary cortex. […]

## EARPALLTSRLRFIPK (homo sapiens) [PEP1, hTERT-derived peptide consisting of 16 amino acids, telomerase location [611-626]]
[1]
  amount of ROS induced by Aβ25-35: significantly reduces
[2]
  Tuj1: increased
[3]
  apoptosis-associated proteins: a low amount
  proliferation-associated proteins: a large amount
